# Earlier results in patent US20110168623A1, “FEED SIDE PASSAGE MATERIAL AND SPIRAL SEPARATION MEMBRANE ELEMENT” (priority 2008, published 2011).
smiles,measurement,setting,value
"Oc1cc(Cl)ccc1Oc1ccc(Cl)cc1Cl [triclosan, 2,4,4′-trichloro-2′-hydroxy diphenyl ether]",antibacterial effect on Pseudomonas aeruginosa,Pseudomonas aeruginosa,small or comparatively small antibacterial effect
same,antibacterial effect on Aspergillus niger,Aspergillus niger,small or comparatively small antibacterial effect
same,antibacterial effect on Candida yeast,Candida yeast,small or comparatively small antibacterial effect
